In patent US5541187A, “6-heterocycyclyl pyrazolo[3,4-d]pyrimidin-4-ones and compositions and method of use thereof” (Sterling Winthrop Inc., priority 1993, dated 1996):
Several values for one entry are separate records, joined by “and”; a condition that tells them apart may be missing. Identical values can stand only once. Counter-ions that a name gives are not always drawn.

Columns and labels:
cGMP-PDE I = cGMP-PDE I inhibitory activity (cyclic nucleotide hydrolysis, isolated PDE isozyme); type: biochemical, various animal species and man; details: for IC50: values marked * are from two separate experimental runs
Description: Multiple isozymic forms of cyclic nucleotide phosphodiesterase (PDE) have been identified in mammalian cells. […] Elevation of intracellular cGMP in vascular smooth muscle triggers a cascade of events that leads to a reduction in muscle tone while elevations in renal tubule cell cGMP stimulates natriuresis and diuresis. Vascular smooth muscle and renal cells contain a phosphodiesterase isozyme that has a low Km (1 μM) for the hydrolysis of cGMP. This isozyme has been referred to as the cGMP-PDE or cGMP-PDE I since it elutes from an anion-exchange sepharose resin in the first peak of PDE activity at a sodium acetate concentration between 150-200 mM. Thus inhibition of the cGMP-PDE isozyme is a viable subcellular mechanism by which increases in cGMP can produce a reduction in total peripheral resistance and a stimulation of natriuresis and diuresis. The development of cGMP-PDE inhibitors represents an approach for the discovery of agents useful for treating heart failure and hypertension. For example, compounds having high inhibitory potency for the cGMP-PDE are expected to lower blood pressure and induce natriuresis and diuresis.
The cGMP-PDE and other PDE isozymes were isolated from cardiovascular tissues (heart and aorta) of various animal species and man by anion-exchange and affinity chromatography as described by Silver et al., Sec. Messeng. Phos. 13:13-25, 1991; PDE activity, in the presence and absence of test compounds was determined essentially as described by Thompson et al., Adv. Cyclic Nucleotide Res. 10:69-92. To determine the potency and selectivity of compounds as PDE inhibitors, compounds are screened for their effect on cyclic nucleotide hydrolysis at 10 μM. If ≥50% inhibition of PDE activity is observed, an IC50 value (concentration of compound causing 50% reduction in PDE activity) and corresponding 95% confidence intervals are generated. The IC50 values are calculated from concentration-response curves as described by Tallarida and Murray, Manual of Pharmacologic Calculations with Computer Programs, Procedure 8, Graded Dose-response, pp. 14-19, Springer-Verlag, N.Y., 1981.

[1] = tested on: Spontaneously hypertensive rats (SHR); assay: Antihypertensive activity in conscious spontaneously hypertensive rats (SHR), iv; type: in vivo; details: Rattus norvegicus, 5 min; for ED25: read-out: ED25 (mean arterial pressure)
Description: After a 2 day recovery from surgery, three baseline blood pressure measurements were made at 5 min intervals in conscious SHR. Compounds to be tested or vehicle were then administered intravenously in a dose-dependent manner (0.3-10 mg base/kg) while arterial pressure was recorded continuously on a polygraph. The mean arterial pressure response was measured 5 minutes after the administration of each dose of the test compound and the next dose given in a cumulative dose fashion. The response to each dose of the test compound was calculated as the difference from the mean of the three baseline measurements.

| IC50 (cGMP-PDE I) | SMILES | Percent Inhibition cGMP-PDE I (cGMP-PDE I; 1 μM) | Percent Inhibition cGMP-PDE I (cGMP-PDE I; 10 μM) | also measured |
| --- | --- | --- | --- | --- |
| 560 nM | Cc1nn(C2CCCC2)c2nc(-c3cccnc3)[nH]c(=O)c12 [Example 98] |  |  | ED25 [1]: 4.1 mg/kg |
| 36 nM | CCc1[nH]n(C2CCCC2)c2nc(-c3ccncc3OC)nc(=O)c1-2 [Example 128c, 1-Cyclopentyl-3-ethyl-6-(3-methoxy-4-pyridyl)pyrazolo[3,4-d]pyrimidin-4-one] |  |  | Percent Inhibition cGMP-PDE I (cGMP-PDE I; 0.01 μM): 54%; Percent Inhibition cGMP-PDE I (cGMP-PDE I; 0.1 μM): 71%; change in vivo at 10 mg/kg ([1]; 10 mg/kg, 5 minutes after dose, cumulative dosing, read-out: % change in mean arterial pressure): -48%; ED25 [1]: 0.23 mg/kg |
|  | CC(C)(C)n1nc(Cc2ccccc2)c2c(=O)[nH]c(-c3ccncc3)nc21 [Example 90] |  |  | change in vivo at 1 mg/kg ([1]; 1 mg/kg, 5 minutes after dose, cumulative dosing, read-out: % change in mean arterial pressure): -6% |
|  | CSc1[nH]n(C2CCCC2)c2nc(-c3ccncc3)nc(=O)c1-2 [Example 19c, 1-Cyclopentyl-3-methylthio-6-(4-pyridyl)pyrazolo[3,4-d]pyrimidin-4-one] | 32% | 74% |  |
| 3700 nM | O=c1[nH]c(-c2ccncc2)nc2c1cnn2C1CCCC1 [Example 71] |  |  |  |
| 1150 nM | O=c1[nH]c(-c2ccncc2)nc2c1c(Cl)nn2C1CCCC1 [Example 72] |  |  |  |
|  | Cc1[nH]n(Cc2ccc(C(N)=O)cc2)c2nc(-c3ccncc3)nc(=O)c1-2 [Example 110, 1-(4-Carbamoylphenylmethyl)-3-methyl-6-(4-pyridyl)pyrazolo[3,4-d]pyrimidin-4-one] | 23% | 74% |  |
|  | COc1cnccc1-c1nc2n(C3CCCC3)[nH]c(C(F)(F)F)c-2c(=O)n1 [Example 135, 1-Cyclopentyl-3-trifluoromethyl-6-(3-methoxy-4-pyridyl)pyrazolo[3,4-d]pyrimidin-4-one] | 88% |  | Percent Inhibition cGMP-PDE I (cGMP-PDE I; 0.01 μM): 36%; Percent Inhibition cGMP-PDE I (cGMP-PDE I; 0.1 μM): 68% |
|  | Cc1[nH]n(Cc2cccc(C(=O)O)c2)c2nc(-c3ccncc3)nc(=O)c1-2 [Example 112, 1-(3-Carboxyphenylmethyl)-3-methyl-6-(4-pyridyl)-pyrazolo[3,4-d]pyrimidin-4-one] | 4% | 52% |  |
|  | Cc1nn(Cc2cccc(C#N)c2)c2nc(-c3ccncc3)[nH]c(=O)c12 [Example 86] |  | 41% |  |
|  | CCc1[nH]n(C2CCCC2)c2nc(-c3ccncc3OC3CCC3)nc(=O)c1-2 [Example 130B, 1-Cyclopentyl-3-ethyl-6-(3-cyclobutyloxy-4-pyridyl)pyrazolo[3,4-d]pyrimidin-4-one] |  |  | Percent Inhibition cGMP-PDE I (cGMP-PDE I; 0.01 μM): 91% |
|  | Cc1[nH]n(Cc2ccc(C(=O)O)cc2)c2nc(-c3ccncc3)nc(=O)c1-2 [Example 111, 1-(4-Carboxylphenylmethyl)-3-methyl-6-(4-pyridyl)-pyrazolo[3,4-d]pyrimidin-4-one] | 0% | 24% |  |
|  | CN(C)c1[nH]n(C2CCCC2)c2nc(-c3ccncc3)nc(=O)c1-2 [Example 20c, 1-Cyclopentyl-3-dimethylamino-6-(4-pyridyl) pyrazolo[3,4-d]pyrimidin-4-one] | 36% | 70% |  |
|  | Cc1nn(C2CCCC2)c2nc(C3CCNCC3)[nH]c(=O)c12 [Example 109, 1-Cyclopentyl-3-methyl-6-(4-piperidinyl)-pyrazolo[3,4-d]-pyrimidin-4-one monohydrochloride. 1/2 hydrate] | 7% | 13% |  |
|  | CCc1[nH]n(C2CCCC2)c2nc(-c3ccncc3OCCOC)nc(=O)c1-2 [Example 131b, 1-Cyclopentyl-3-ethyl-6-(3-(2-methoxyethoxy)-4-pyridyl)pyrazolo[3,4-d]pyrimidin-4-one] | 86% |  | Percent Inhibition cGMP-PDE I (cGMP-PDE I; 0.01 μM): 22%; Percent Inhibition cGMP-PDE I (cGMP-PDE I; 0.1 μM): 61% |
|  | Cc1[nH]n(Cc2cc(NS(=O)(=O)c3cccc4cccnc34)ccc2Cl)c2nc(-c3ccncc3)nc(=O)c1-2 [Example 108, 1-[2-Chloro-5-((8-quinolinylsulfonyl)amino)phenylmethyl]-3-methyl-6-(4-pyridyl)-pyrazolo[3,4-d]pyrimidin-4-one] | 38% | 86% |  |
| 610 nM | Cc1nn(CCCCCCCC(=O)O)c2nc(-c3ccncc3)[nH]c(=O)c12 [Example 84] |  |  |  |

| IC50 (cGMP-PDE I) | SMILES | Percent Inhibition cGMP-PDE I (cGMP-PDE I; 1 μM) | Percent Inhibition cGMP-PDE I (cGMP-PDE I; 10 μM) | also measured |
| --- | --- | --- | --- | --- |
|  | CCc1[nH]n(C2CCCC2)c2nc(-c3cc(C)nc(Cl)c3)nc(=O)c1-2 [Example 117, 1-Cyclopentyl-3-ethyl-6-(2-chloro-6-methyl-4-pyridyl)pyrazolo[3,4-d]pyrimidin-4-one] | 11% | 22% |  |
|  | CCc1[nH]n(C2CCCC2)c2nc(C3CCNC4CCCCC43)nc(=O)c1-2 (stereo not drawn) [Example 8, 1-Cyclopentyl-3-ethyl-6-(perhydro-4-quinolinyl)-pyrazolo[3,4-d]pyrimidin-4-one] | 31% | 67% |  |
|  | Cc1nn(C2CCS(=O)(=O)C2)c2nc(-c3ccncc3)[nH]c(=O)c12 (stereo not drawn) [Example 18c, 1-(3-Tetrahydrothienyl-1,1-dioxide)-3-methyl-6-(4-pyridyl)pyrazolo[3,4-d]pyrimidin-4-one methanesulfonate] | 0% | 45% |  |
|  | Cc1[nH]n(Cc2cccc(C(N)=O)c2)c2nc(-c3ccncc3)nc(=O)c1-2 [Example 113, 1-(3-Carbamoylphenylmethyl)-3-methyl-6-(4-pyridyl) pyrazolo[3,4-d]pyrimidin-4-one] | 0% | 48% |  |
| 260 nM | CC(C)(C)n1[nH]c(CC2CCCCC2)c2c(=O)nc(-c3ccncc3)nc1-2 [Example 5e, 1-tert-Butyl-3-(cyclohexylmethyl)-6-(4-pyridyl)-pyrazolo[3,4-d]pyrimidin-4-one] |  |  |  |
|  | CC(C)(C)c1nn(C2CCCC2)c2nc(-c3ccncc3)[nH]c(=O)c12 [Example 95] | 9% | 32% |  |
|  | CCc1[nH]n(C2CCCC2)c2nc(-c3cccnc3)nc(=O)c1-2 [Example 137, 1-Cyclopentyl-3-ethyl-6-(3-pyridyl)pyrazolo[3,4-d]pyrimidin-4-one] | 64% |  | Percent Inhibition cGMP-PDE I (cGMP-PDE I; 0.1 μM): 27% |
|  | Cc1nn(Cc2ccccc2)c2nc(-c3ccncc3)[nH]c(=O)c12 [Example 77] | 13% | 80% |  |
| 850 nM | Cc1nn(C2CC3CCC2C3)c2nc(-c3ccncc3)[nH]c(=O)c12 (stereo not drawn) [Example 91] |  |  |  |
| 2700 nM and 3600 nM | Cc1ccccc1Cn1nc(C)c2c(=O)[nH]c(-c3ccncc3)nc21 [Example 87] |  |  |  |
| 4700 nM | Cc1nn(CCCCCCC(=O)O)c2nc(-c3ccncc3)[nH]c(=O)c12 [Example 79] |  |  |  |
| 6700 nM | Cc1[nH]n(Cc2ccc([N+](=O)[O-])cc2)c2nc(-c3ccncc3)nc(=O)c1-2 [Example 105, 1-(4-Nitrophenylmethyl)-3-methyl-6-(4-pyridyl)pyrazolo[3,4-d]pyrimidin-4-one] |  |  |  |
|  | CCc1nn(C2CCCC2)c2nc(-c3cc(C)nc(-n4ccnc4)c3)[nH]c(=O)c12 [Example 120, 1-Cyclopentyl-3-ethyl-6-[2-(1-imidazolyl)-6-methyl-4-pyridyl]pyrazolo[3,4-d]pyrimidin-4-one-1/4 hydrate] | 60% |  | Percent Inhibition cGMP-PDE I (cGMP-PDE I; 0.1 μM): 16% |
| 620 nM | CC(C)(C)n1[nH]c(Nc2ccccc2)c2c(=O)nc(-c3ccncc3)nc1-2 [Example 6e, 1-tert-Butyl-3-phenylamino-6-(4-pyridyl)-pyrazolo[3,4-d]-pyrimidin-4-one] |  |  |  |
|  | CCCOc1cnccc1-c1nc2n(C3CCCC3)[nH]c(CC)c-2c(=O)n1 [Example 133c, 1-Cyclopentyl-3-ethyl-6-(3-propoxy-4-pyridyl)pyrazolo[3,4-d]pyrimidin-4-one] |  |  | Percent Inhibition cGMP-PDE I (cGMP-PDE I; 0.01 μM): 82% |
|  | Cc1[nH]n(C)c2nc(-c3ccncc3)nc(=O)c1-2 [Example 103, 1,3-Dimethyl-6-(4-pyridyl)-pyrazolo-[3,4-d]pyrimidin-4-one] | 0% | 19% |  |
|  | O=c1nc(-c2ccncc2)nc2n(C3CCCC3)[nH]c(Cc3ccccc3)c1-2 [Example 15e, 1-Cyclopentyl-3-phenylmethyl-6-(4-pyridyl)-pyrazolo[3,4-d]pyrimidin-4-one] | 38% | 43% |  |
